Here are results for 59 compounds from patent publication US12559474B2, “Triazine derivatives having virus replication inhibitory activity and pharmaceutical composition comprising the same” (priority 2021, dated 2026).

This assay has as its target SARS-CoV-2 3CL protease (Severe acute respiratory syndrome coronavirus 2, UniProt P0DTD1). In words: biochemical.

Values joined by “and” are separate entries in the source; they are usually repeats but may differ in a detail not shown here. Equal entries are not always repeated. Where two headings read alike, the source gives them in different places. Some results are limits rather than exact numbers.

On to `Cn1cc2cc(Nc3nc(=O)n(Cc4ccc[nH]c4=O)c(=O)n3Cc3cc(F)cc(C#N)c3)c(Cl)cc2n1` [Compound I-0268], for which the IC50 (IC50) is < 100 nM.

`Cn1cc2cc(Nc3nc(=O)n(Cc4cc(F)c[nH]c4=O)c(=O)n3Cc3ccc(F)c(C#N)c3)c(Cl)cc2n1` [Compound I-0270]: the IC50 (IC50) was < 100 nM.

Consider `CS(=O)(=O)CCCn1cc2cc(Nc3nc(=O)n(Cc4ccc[nH]c4=O)c(=O)n3Cc3cc(F)c(F)c(F)c3)c(Cl)cc2n1` [Compound I-0287], for which, for the setting “IC50”, the IC50 is < 100 nM.

Consider `CC(=O)N1CC(n2cc3cc(Nc4nc(=O)n(-c5cncc6ccccc56)c(=O)n4Cc4cc(F)c(F)c(F)c4)c(Cl)cc3n2)C1` [Compound I-0289], for which, where the note is “IC50”, the IC50 was < 100 nM.

`COc1ccc(Nc2cc(=O)n(Cc3ccc[nH]c3=O)c(=O)n2Cc2cc(F)c(F)c(F)c2)cc1` [Compound I-0326]: under “IC50”, half-maximal inhibition (IC50) was put at 65 nM.

`Cn1cc2cc(Nc3nc(=O)n(Cc4cc(C(=O)NC5CC5)c[nH]c4=O)c(=O)n3Cc3cc(F)c(F)c(F)c3)c(Cl)cc2n1` [Compound I-0333]: where the note is “IC50”, the IC50 was < 100 nM.

`COc1ccc(Nc2nc(=O)n(Cc3cc(C)on3)c(=O)n2Cc2cc(F)c(F)c(F)c2)cc1` [Compound I-0334]: the IC50 (IC50) was 870 nM and 100 to 1000 nM.

For `COc1ccc(Nc2nc(=O)n(Cc3cc(C)[nH]n3)c(=O)n2Cc2cc(F)c(F)c(F)c2)cc1` [Compound I-0340], the IC50 (IC50) is 840 nM and 100 to 1000 nM.

`N#Cc1cc(Cn2c(Nc3ccc4c(c3)CCO4)nc(=O)n(-c3cncc(CO)c3)c2=O)ccc1F` [Compound I-0356]: the IC50 (IC50) was < 100 nM.

For `CN(C)C(=O)Cn1cc2cc(Nc3nc(=O)n(Cc4ccc[nH]c4=O)c(=O)n3Cc3cc(F)c(F)c(F)c3)c(Cl)cc2n1` [Compound I-0367], where the note is “IC50”, the IC50 is < 100 nM.

`O=c1[nH]cccc1Cn1c(=O)nc(Nc2ccc(OCCO)cc2Cl)n(Cc2cc(F)c(F)c(F)c2)c1=O` [Compound I-0371]: the IC50 (IC50) is < 100 nM.

As to `COc1ccc(Nc2nc(=O)n(Cc3cc(-c4cccnc4)c[nH]c3=O)c(=O)n2Cc2cc(F)c(F)c(F)c2)cc1` [Compound I-0386], the IC50 (IC50) is < 100 nM.

`O=c1[nH]cccc1Cn1c(=O)nc(Nc2ccc(-c3cocn3)cc2Cl)n(Cc2cc(F)c(F)c(F)c2)c1=O` [Compound I-0396]: for the setting “IC50”, the IC50 is 3100 nM and 1000 to 10000 nM.

For the compound `O=C1OCCN1c1ccc(Nc2nc(=O)n(Cc3ccc[nH]c3=O)c(=O)n2Cc2cc(F)c(F)c(F)c2)c(Cl)c1` [Compound I-0397], the IC50 (IC50) is 730 nM and 100 to 1000 nM.

As to `CCc1nc2cc(Cl)c(Nc3nc(=O)n(Cc4ccc[nH]c4=O)c(=O)n3Cc3cc(F)c(F)c(F)c3)cc2n1C` [Compound I-0399], the IC50 (IC50) was < 100 nM.

Consider `COc1ccc(Nc2nc(=O)n(Cc3cnc(C)[nH]c3=O)c(=O)n2Cc2cc(F)c(F)c(F)c2)cc1` [Compound I-0403], for which the IC50 (IC50) is 310 nM and 100 to 1000 nM.

As to `Cn1cc2cc(Nc3nc(=O)n(Cc4c[nH]c(=O)[nH]c4=O)c(=O)n3Cc3cc(F)c(F)c(F)c3)c(Cl)cc2n1` [Compound I-0405], for the setting “IC50”, the IC50 is < 100 nM.

In the case of `Cc1nc2cc(Cl)c(Nc3nc(=O)n(Cc4c[nH]c(=O)[nH]c4=O)c(=O)n3Cc3cc(F)c(F)c(F)c3)cc2n1C` [Compound I-0407], under “IC50”, the concentration for half-maximal inhibition (IC50) was < 100 nM.

With `COc1ccc(Nc2nc(=O)n(Cc3cn(-c4ccccc4)cn3)c(=O)n2Cc2cc(F)c(F)c(F)c2)cc1` [Compound I-0412], the IC50 (IC50) is 5100 nM and 1000 to 10000 nM.

As to `COC(=O)Cn1cnc(Cn2c(=O)nc(Nc3ccc(OC)cc3)n(Cc3cc(F)c(F)c(F)c3)c2=O)c1` [Compound I-0414], the IC50 (IC50) was 250 nM and 100 to 1000 nM.

As to `COc1ccc(Nc2nc(=O)n(Cc3cn(CCO)cn3)c(=O)n2Cc2cc(F)c(F)c(F)c2)cc1` [Compound I-0415], the IC50 (IC50) was 3000 nM and 1000 to 10000 nM.

Turning to `COc1ccc(Nc2nc(=O)n(Cc3cn(CC(N)=O)cn3)c(=O)n2Cc2cc(F)c(F)c(F)c2)cc1` [Compound I-0416], the IC50 (IC50) is 3500 nM and 1000 to 10000 nM.

On to `CN(C)CCn1cc2cc(Nc3nc(=O)n(Cc4ccc[nH]c4=O)c(=O)n3Cc3cc(F)c(F)c(F)c3)c(Cl)cc2n1` [Compound I-0427], for which, under “IC50”, the IC50 is < 100 nM.

On to `CN1Cc2cc(Nc3nc(=O)n(Cc4ccc[nH]c4=O)c(=O)n3Cc3cc(F)c(F)c(F)c3)ccc2C1=O` [Compound I-0438], for which, where the note is “IC50”, the IC50 was 740 nM and 100 to 1000 nM.

On to `Cc1nc2cc(Cl)c(Nc3nc(=O)n(Cc4ccc[nH]c4=O)c(=O)n3Cc3cc(F)c(F)c(F)c3)cc2n1C` [Compound I-0439], for which the IC50 (IC50) is < 100 nM.

As to `Cn1nnc2cc(Cl)c(Nc3nc(=O)n(Cc4ccc[nH]c4=O)c(=O)n3Cc3cc(F)c(F)c(F)c3)cc21` [Compound I-0440], the half-inhibitory concentration (IC50) (IC50) is < 100 nM.

With `Cc1cn2cc(Nc3nc(=O)n(Cc4ccc[nH]c4=O)c(=O)n3Cc3cc(F)c(F)c(F)c3)c(Cl)cc2n1` [Compound I-0441], the IC50 (IC50) is < 100 nM.

In the case of `Cc1nc2cc(Cl)c(Nc3nc(=O)n(Cc4ccc[nH]c4=O)c(=O)n3Cc3cc(F)c(F)c(F)c3)cn2n1` [Compound I-0442], under “IC50”, the IC50 was < 100 nM.

For `COCCn1c(C)nc2cc(Cl)c(Nc3nc(=O)n(Cc4ccc[nH]c4=O)c(=O)n3Cc3cc(F)c(F)c(F)c3)cc21` [Compound I-0443], the IC50 (IC50) is < 100 nM.

Turning to `Cc1nc2cc(Cl)c(Nc3nc(=O)n(Cc4ccc[nH]c4=O)c(=O)n3Cc3cc(F)c(F)c(F)c3)cc2n1CC(C)(C)O` [Compound I-0445], under “IC50”, the IC50 is < 100 nM.

For the compound `Cc1nc2cc(Cl)c(Nc3nc(=O)n(Cc4ccc[nH]c4=O)c(=O)n3Cc3cc(F)c(F)c(F)c3)cc2n1CCCS(C)(=O)=O` [Compound I-0446], the IC50 (IC50) is < 100 nM.

Turning to `CC(=O)N1CC(n2cc3cc(Nc4nc(=O)n(Cc5ccc[nH]c5=O)c(=O)n4Cc4cc(F)c(F)c(F)c4)c(Cl)cc3n2)C1` [Compound I-0448], the IC50 (IC50) was < 100 nM.

As to `CC(=O)NCCn1cc2cc(Nc3nc(=O)n(Cc4ccc[nH]c4=O)c(=O)n3Cc3cc(F)c(F)c(F)c3)c(Cl)cc2n1` [Compound I-0449], the IC50 (IC50) was < 100 nM.

Consider `CC(=O)NCCn1cc2cc(Nc3nc(=O)n(Cc4cc(Cl)c[nH]c4=O)c(=O)n3Cc3cc(F)c(F)c(F)c3)c(Cl)cc2n1` [Compound I-0453], for which, for the setting “IC50”, the IC50 is < 100 nM.

In the case of `CC(=O)Nc1nc2ccc(Nc3nc(=O)n(Cc4ccc[nH]c4=O)c(=O)n3Cc3cc(F)c(F)c(F)c3)cc2s1` [Compound I-0458], the IC50 (IC50) is < 100 nM.

On to `CNC(=O)COc1ccc(Nc2nc(=O)n(Cc3ccc[nH]c3=O)c(=O)n2Cc2cc(F)c(F)c(F)c2)c(Cl)c1` [Compound I-0463], for which the IC50 (IC50) is < 100 nM.

Turning to `O=C(O)COc1ccc(Nc2nc(=O)n(Cc3ccc[nH]c3=O)c(=O)n2Cc2cc(F)c(F)c(F)c2)c(Cl)c1` [Compound I-0464], the IC50 (IC50) was < 100 nM.

In the case of `O=c1[nH]cccc1Cn1c(=O)nc(Nc2cc3cn(CC4(CO)COC4)nc3cc2Cl)n(Cc2cc(F)c(F)c(F)c2)c1=O` [Compound I-0469], the concentration for half-maximal inhibition (IC50) (IC50) is < 100 nM.

As for `CNC(=O)c1c[nH]c(=O)c(Cn2c(=O)nc(Nc3cc4cn(C)nc4cc3Cl)n(Cc3cc(F)c(F)c(F)c3)c2=O)c1` [Compound I-0477], the IC50 (IC50) was < 100 nM.

As for `CNC(=O)c1c[nH]c(=O)c(Cn2c(=O)nc(Nc3cc4c(cc3Cl)OCC4)n(Cc3cc(F)c(F)c(F)c3)c2=O)c1` [Compound I-0478], where the note is “IC50”, the IC50 is < 100 nM.

For `CNC(=O)Cn1c(=O)nc(Nc2cc3sc(C)nc3cc2C)n(Cc2cc(F)c(F)c(F)c2)c1=O` [Compound I-0479], where the note is “IC50”, the IC50 was in the range of 1000 to 10000 nM.

Regarding `Cn1cnc(Cn2cc3cc(Nc4nc(=O)n(Cc5ncn(C)n5)c(=O)n4Cc4cc(F)c(F)c(Cl)c4)c(Cl)cc3n2)n1` [II-0004], the IC50 (IC50) is < 100 nM.

`Cn1cc2cc(Nc3nc(=O)n(Cc4cc5ccsc5[nH]c4=O)c(=O)n3Cc3ccc(F)c(C#N)c3)ccc2n1` [II-0009]: the IC50 (IC50) was < 100 nM.

As for `CC(=O)Nc1nc2cc(F)c(Nc3nc(=O)n(Cc4ncn(C)n4)c(=O)n3Cc3cc(F)c(F)c(Cl)c3)cc2s1` [II-0012], the IC50 (IC50) is < 100 nM.

As to `Cn1cnc(Cn2c(=O)nc(Nc3cc4c(=O)n(C)cnc4cc3Cl)n(Cc3cc(F)c(F)cc3F)c2=O)n1` [II-0013], the IC50 (IC50) is < 100 nM.

With `Cc1nc2cc(Cl)c(Nc3nc(=O)n(Cc4ncn(C)n4)c(=O)n3Cc3cc(F)c(F)cc3F)cc2n1C` [II-0019], the IC50 (IC50) was < 100 nM.

`Cc1cncc(-n2c(=O)nc(Nc3cc4cn(C)nc4cc3Cl)n(Cc3nc(Cl)c(Cl)n3C)c2=O)c1` [II-0021] had an IC50 (IC50) of 3600 nM.

With `Cn1cnc(Cn2c(=O)nc(Nc3cc4cn(CCS(C)(=O)=O)nc4cc3Cl)n(Cc3cc(Cl)c(F)cc3F)c2=O)n1` [II-0033], the IC50 (IC50) is < 100 nM.

With `CN(C)C(=O)c1ccc(Cn2c(=O)nc(Nc3ccc4c(c3)CCCO4)n(Cc3cc(F)c(F)c(F)c3)c2=O)c(=O)[nH]1` [II-0042], the IC50 (IC50) is < 100 nM.

As for `COC(=O)NC12CC(Nc3nc(=O)n(Cc4ccc[nH]c4=O)c(=O)n3Cc3cc(F)c(F)c(F)c3)(C1)C2` [II-0062], where the note is “IC50”, the IC50 was < 100 nM.

Take `Cc1cncc(-n2c(=O)nc(Nc3cc4sc(NCC5CC5)nc4cc3Cl)n(Cc3ccc(F)c(C#N)c3)c2=O)c1` [II-0081]: the 50% inhibitory concentration (IC50) (IC50) was < 100 nM.

With `CC(=O)Nc1nc2cc(Cl)c(Nc3nc(=O)n(Cc4ncn(C)n4)c(=O)n3Cc3ccc(F)c(C#N)c3)cc2s1` [II-0083], under “IC50”, the IC50 was < 100 nM.

Turning to `Cc1cncc(-n2c(=O)nc(Nc3cc4cn(C)nc4cc3Cl)n(C[C@@H]3CCCN3)c2=O)c1` [II-0085], the IC50 (50% SARS-CoV-2 3CL protease inhibitory concentration, RapidFire MS, read-out: IC50) was 9200 nM.

For the compound `Cc1cncc(-n2c(=O)nc(Nc3cc4cn(C)nc4cc3Cl)n(C[C@@H]3CCCN3C(=O)CNC(=O)C(F)(F)F)c2=O)c1` [II-0086], the midpoint of inhibition (IC50), the IC50, lay at 3400 nM.

Turning to `Cn1cc2cc(Nc3nc(=O)n(Cc4nc[nH]n4)c(=O)n3Cc3cc(F)c(F)cc3F)c(Cl)cc2n1` [II-0091], the IC50 (IC50) was < 100 nM.

With `COc1ccnc(NC23CC(Nc4nc(=O)n(Cc5ncn(C)n5)c(=O)n4Cc4cc(F)c(F)c(F)c4)(C2)C3)n1` [II-0113], for the setting “IC50”, the IC50 was < 100 nM.

Turning to `COc1ncc(Nc2nc(=O)n(-c3cncc(C)c3)c(=O)n2Cc2ccc(F)c(C#N)c2)c(C)n1` [II-0124], it took 3300 nM to reach half-maximal inhibition (IC50) (IC50).

As for `Cn1cnc(Cn2c(=O)nc(Nc3cc4cn(CC(=O)N5CCCCC5)nc4cc3Cl)n(Cc3cc(Cl)c(F)cc3F)c2=O)n1` [II-0134], the IC50 (IC50) was < 100 nM.

For `COCCN(C)C(=O)Cn1cc2cc(Nc3nc(=O)n(Cc4ncn(C)n4)c(=O)n3Cc3cc(Cl)c(F)cc3F)c(Cl)cc2n1` [II-0135], the IC50 (IC50) was < 100 nM.

The term IC50 denotes the concentration at which inhibition is half-maximal.
